{
  "source": "paper PMC8597734",
  "about": "(Antimicrobial Agents and Chemotherapy, 2021)",
  "key": {"[1]": {"tested_on": "M. tuberculosis H37Rv ATCC 27294", "experiment": "microbe, parasite or virus in culture", "type": "cell-based", "conditions": "Mycobacterium tuberculosis, 168 h"}, "M. avium 11": {"tested_on": "M. avium 11", "experiment": "microbe, parasite or virus in culture", "type": "cell-based", "conditions": "Mycobacterium avium, 11, 96 h"}, "[2]": {"tested_on": "M. intracellulare ATCC 13950", "experiment": "microbe, parasite or virus in culture", "type": "cell-based", "conditions": "Mycobacterium intracellulare, ATCC13950, 96 h"}, "[3]": {"tested_on": "M. abscessus subsp. abscessus M9", "experiment": "microbe, parasite or virus in culture", "type": "cell-based, Mycobacterium abscessus", "conditions": "Mycobacteroides abscessus, 72 h"}, "[4]": {"tested_on": "M. abscessus subsp. abscessus M199", "experiment": "microbe, parasite or virus in culture", "type": "cell-based, Mycobacterium abscessus", "conditions": "Mycobacteroides abscessus, 72 h"}, "[5]": {"tested_on": "M. abscessus subsp. abscessus M422", "experiment": "microbe, parasite or virus in culture", "type": "cell-based, Mycobacterium abscessus", "conditions": "Mycobacteroides abscessus, 72 h"}, "[6]": {"tested_on": "M. abscessus subsp. bolletii M506", "experiment": "microbe, parasite or virus in culture", "type": "cell-based, Mycobacterium abscessus", "conditions": "Mycobacteroides abscessus, 72 h"}, "[7]": {"tested_on": "M. abscessus subsp. abscessus K21", "experiment": "microbe, parasite or virus in culture", "type": "cell-based, Mycobacterium abscessus", "conditions": "Mycobacteroides abscessus, 72 h"}, "M. abscessus Bamboo": {"tested_on": "M. abscessus Bamboo", "experiment": "MIC and MBC determination in culture tubes (planktonic)", "type": "cell-based, Mycobacterium abscessus", "conditions": "Mycobacteroides abscessus"}, "[8]": {"tested_on": "M. abscessus Bamboo biofilms", "experiment": "Biofilm growth inhibition assay (biofilm MIC and MBC)", "type": "cell-based, Mycobacterium abscessus", "protocol": "The biofilm growth inhibition assay was performed as previously described ([52]). Innovotech MBEC 96-well Biofilm Assay Plates (Innovotech 19111, Edmonton, AB, Alberta, Canada) were used, and the supplier’s manual was followed with minor modifications. Midlog phase M. abscessus Bamboo precultures (OD600 = 0.4–0.6) were spun down at 3,200 × g for 10 min at 25°C and washed with 7H9 medium without Tween 80 (7H9nt). Bacteria were resuspended into 25 ml 7H9nt to an OD600 = 0.0125 (1.0 × 10^6 CFU/ml). 150 μl of bacteria suspension was dispensed into each well of MBEC multititer plates and the polystyrene protrusions (pegs) of the MBEC lid were inserted into the culture-containing wells for 24 h at 37°C on an orbital shaker at 110 rpm to allow attachment of the bacteria to the pegs and initiation of biofilm growth. The lids with the pegs (now with 1-day-old biofilms) were transferred to new MBEC multititer plates containing 150 μl of fresh 7H9nt medium per well without bacteria (0 h time point). After that, the lids with biofilm-laden pegs were transferred once a day to a new multititer plate containing fresh 7H9nt medium. To measure growth of the biofilm formed on the peg, the pegs were washed in 200 μl of 7H9nt medium before they were aseptically removed and placed in 1.7 ml microcentrifuge tubes (VWR 87003-294, Rador, PA, United States) containing 500 μl PBS/Tween 80. The microcentrifuge tubes were vigorously vortexed at 2,000 rpm for 90 s at 25°C to detach the bacteria from the pegs before samples were serially diluted and plated for the determination of CFU/peg. […] The average drug-free biofilm growth was calculated by subtracting the average 24 h CFU/peg value from the average 72 h CFU/peg value for the untreated control pegs. The biofilm MIC was defined as the lowest drug concentration that reduced the CFU/peg by 90% relative to the average drug-free biofilm growth."}, "[9]": {"tested_on": "anaerobic, nonreplicating M. abscessus Bamboo", "experiment": "MBC determination under anaerobic conditions", "type": "cell-based, Mycobacterium abscessus", "conditions": "48 h drug exposure"}, "[10]": {"tested_on": "nutrient-starved, nonreplicating M. abscessus Bamboo", "experiment": "MBC determination under nutrient-starved conditions", "type": "cell-based, Mycobacterium abscessus", "conditions": "48 h drug exposure", "protocol": "The determination of drug bactericidal activity against nutrient-starved M. abscessus cultures was performed as previously described ([52]). […] Washed culture was then diluted with PBS/Tyloxapol to OD600 = 0.2 (1.8 × 10^7 CFU/ml). […] Appropriate concentrations of drugs up to 100 μM were added to the tubes prior to incubation at 37°C on a tilted rack in an orbital shaker at 220 rpm."}, "[11]": {"tested_on": "M. abscessus Bamboo RM1 (GyrA M129K)", "experiment": "microbe, parasite or virus in culture", "type": "cell-based, Mycobacterium abscessus"}, "[12]": {"tested_on": "M. abscessus Bamboo RM3 (GyrA D91N)", "experiment": "microbe, parasite or virus in culture", "type": "cell-based, Mycobacterium abscessus"}, "[13]": {"tested_on": "M. abscessus Bamboo RM4 (GyrA D91G)", "experiment": "microbe, parasite or virus in culture", "type": "cell-based, Mycobacterium abscessus"}, "ChromlogD assay": {"experiment": "ChromlogD assay", "type": "physicochemical", "conditions": "reversed phase HPLC column (Gemini NX C18)", "protocol": "The Chromatographic Hydrophobicity Index (CHI) values are measured using reversed phase HPLC column (50 × 2 mm […] Gemini NX C18, Phenomenex, UK) with fast acetonitrile gradient at starting mobile phase of pHs 2, 7.4 and 10.5. CHI values are derived directly from the gradient retention times by using a calibration line obtained for standard compounds. The CHI value approximates to the volume % organic concentration when the compound elutes. CHI is linearly transformed into ChromlogD by least-square fitting of experimental CHI values to calculated ClogP values for over 20K research compounds using the following formula: ChromlogD = 0.0857CHI-2.00. The average error of the assay is ±3 CHI unit or ±0.25 ChromlogD."}},
  "note": "Like-named read-outs stand apart in the source and are kept apart here.",
  "data": [
    {"smiles": "COc1cnc2ccc(=O)n(CCN3CCC(NCc4cnc(CO)c(Cl)c4)CC3)c2c1", "note": "[EC/11716]", "values": [
      {"measurement": "MIC", "setting": "[1]", "value": 0.38, "unit": "µM"},
      {"measurement": "MIC", "setting": "M. avium 11", "value": 1.1, "unit": "µM"},
      {"measurement": "MIC", "setting": "[2]", "value": 3.3, "unit": "µM"},
      {"measurement": "MIC", "setting": "[3]", "value": 2.9, "unit": "µM"},
      {"measurement": "MIC", "setting": "[4]", "value": 3.8, "unit": "µM"},
      {"measurement": "MIC", "setting": "[5]", "value": 1.8, "unit": "µM"},
      {"measurement": "MIC", "setting": "[6]", "value": 5.2, "unit": "µM"},
      {"measurement": "MIC", "setting": "[7]", "value": 3, "unit": "µM"},
      {"measurement": "MBC", "setting": "M. abscessus Bamboo; 0 h, 10-fold reduction in CFU/ml vs day 0", "value": 3.1, "unit": "µM"},
      {"measurement": "MIC", "setting": "M. abscessus Bamboo; 48 h, day 2", "value": 1.5, "unit": "µM"},
      {"measurement": "increase of biofilm MBC relative to planktonic MBC", "setting": "[8]; M. abscessus Bamboo biofilm vs planktonic bacteria", "value": 2, "unit": "fold"},
      {"measurement": "MBC", "setting": "[8]; Mycobacteroides abscessus, Biofilm, M. abscessus Bamboo, 10-fold reduction of CFU/peg vs 24 h", "value": 6.3, "unit": "µM"},
      {"measurement": "MIC", "setting": "[8]; Mycobacteroides abscessus, Biofilm, M. abscessus Bamboo, 90% reduction of CFU/peg relative to drug-free biofilm growth, 48 h", "value": 0.78, "unit": "µM"},
      {"measurement": "MBC", "setting": "[9]", "value": ">100", "unit": "µM"},
      {"measurement": "MBC", "setting": "[9]; Mycobacteroides abscessus", "value": "> 100", "unit": "µM"},
      {"measurement": "MBC", "setting": "[10]", "value": ">100", "unit": "µM"},
      {"measurement": "MBC", "setting": "[10]; Mycobacteroides abscessus", "value": "> 100", "unit": "µM"},
      {"measurement": "MIC", "setting": "[11]", "value": ">100", "unit": "µM"},
      {"measurement": "MIC", "setting": "[11]; Mycobacteroides abscessus", "value": "> 100", "unit": "µM"},
      {"measurement": "MIC", "setting": "[12]", "value": ">100", "unit": "µM"},
      {"measurement": "MIC", "setting": "[12]; Mycobacteroides abscessus", "value": "> 100", "unit": "µM"},
      {"measurement": "MIC", "setting": "[13]", "value": ">100", "unit": "µM"},
      {"measurement": "MIC", "setting": "[13]; Mycobacteroides abscessus", "value": "> 100", "unit": "µM"},
      {"measurement": "chromatographic logD", "setting": "ChromlogD assay; pH 7.4, read-out: ChromLogD pH 7.4", "value": 1.73},
      {"measurement": "chromatographic logD", "setting": "ChromlogD assay; read-out: LogD", "value": 1.74}
    ]}
  ]
}
